From patent publication US20210024498A1, “TETRAHYDROPYRROLE COMPOUND, PREPARATION METHOD THEREFOR, PHARMACEUTICAL COMPOSITION CONTAINING SAME, AND USE THEREOF” (MEDICONNS (SHANGHAI) BIOPHARMACEUTICAL CO., LTD, priority 2017, published 2021)

Key:
D2 receptor [1] = target: T1, D2 receptor (Homo sapiens, UniProt P14416); assay: D2 receptor function assay, calcium mobilization (FLIPR); assay type: cell-based; settings: HEK293, antagonism of D2 receptor
T1 construct: expressed in transfected cells; host or cells: HEK293
T1 sequence (P14416 whole entry): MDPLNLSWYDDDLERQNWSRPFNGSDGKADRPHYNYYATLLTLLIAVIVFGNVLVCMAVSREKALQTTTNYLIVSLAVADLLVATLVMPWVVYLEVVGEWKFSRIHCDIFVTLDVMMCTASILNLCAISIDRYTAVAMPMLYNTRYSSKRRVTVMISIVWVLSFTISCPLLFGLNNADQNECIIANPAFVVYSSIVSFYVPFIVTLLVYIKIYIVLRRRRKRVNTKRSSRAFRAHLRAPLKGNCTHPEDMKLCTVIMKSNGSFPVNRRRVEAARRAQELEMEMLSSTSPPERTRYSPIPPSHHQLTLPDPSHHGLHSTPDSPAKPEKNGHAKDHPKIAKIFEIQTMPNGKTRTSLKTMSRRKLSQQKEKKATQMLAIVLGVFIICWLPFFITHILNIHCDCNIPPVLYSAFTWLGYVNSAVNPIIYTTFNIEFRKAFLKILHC
Description: (§1) Bioactivity Test • I. D2 receptor affinity assay: The affinity of the compound to D2 receptor was determined by radioligand competition assay, and the cloned D2 receptor was expressed in HEK293 cell line. • II. D2 receptor function assay: The ability of the compound to antagonize the D2 receptor was determined using a calcium mobilization assay (FLIPR). • III. DAT receptor function assay: The ability of the compound to inhibit DAT was determined by neurotransmitter transporter absorption assay.
• Cell line: HEK293 • DMEM medium (Invitrogen) • Fetal bovine serum (FBS, Invitrogen) • L-Glutamine (Invitrogen) G418 (Invitrogen) • Blasticidin (Invitrogen)
• Fluo-4 Direct Kit (Invitrogen)
• 250 mM Probenecid solution was formulated: according to the kit instructions, 1 mL of FLIPR buffer salt solution was added to 77 mg probenecid just before needed. • 2× (8 μM) Fluo-4 Direct™ loading buffer was formulated: the number of tubes in Fluo-4 Direct™ needed for the experiment was melted in advance. Just before needed, 10 ml of FLIPR buffer salt solution and 0.2 mL of 250 mM Probenecid solution were added to each tube and vortexed in dark for more than 5 minutes.
• a) One tube of cells was taken from the liquid nitrogen tank and quickly thawed in 37° C. water bath. • b) The cell suspension was added to a centrifuge tube to which the preheated 20 ml medium was added in advance. • c) The centrifuge tube was centrifuged at 1000 rpm for 5 minutes at room temperature. • d) The supernatant was slowly decanted to avoid affecting the precipitated cells. • e) The cells were resuspended with 10-30 ml medium by pipetting the cells gently with a pipette. • f) The viability and number of cells were calculated with the cell counter. • g) The cells were diluted to 1×10^5 cells/ml with medium, and inoculated in the 384-well polylysine coated cell plate at 20 μL/well. • h) The plate was incubated in an incubator at 5% CO2, 37° C. for 16 to 20 hours.
10 μL of experimental buffer salt solution was added into the cell plate according to the set program, and the fluorescence signal was read. 10 μL of agonist reference compound was further added at a given concentration to the cell plate and the fluorescence signal was read. After reading, the data was derived by “Max-Min” and “Read 90 to Maximum Allowed” methods in the software and EC80 of the corresponding cell line was calculated, and the reference compound with a concentration of 6× EC80 was prepared. • f) The FLIPR instrument software was run. 10 μL of the compound to be tested and the reference compound at a given concentration were added into the cell plate according to the set program, and the fluorescence signal was read. 10 μL of reference compound agonist was further added at a concentration of 6× EC80 to the cell plate and the fluorescence signal was read. • g) Data Analysis • Calculation formula for data in the project:
Inhibitor % activity=100−(signal value per well−average value for high dose control group of inhibitor)/(average value for DMSO control group−average value for high dose control group of inhibitor)*100%.

D2 receptor [2] = target: T1, D2 receptor; assay: D2 receptor affinity assay (radioligand competition, 3H-7-OH-DPAT); assay type: binding; settings: cloned D2 receptor expressed in HEK293 cell line; 3H-7-OH-DPAT 1 nM
Description: as §1
• Experimental buffer: 50 mM Tris-HCl, pH 7.4, 5 mM MgCl2 • Washing buffer: 50 mM Tris-HCl pH 7.4, stored at 4° C. ready for use.
• The compound and positive control 7-OH-DPAT were serially diluted with DMSO, with the initial concentration of 2 mM and 4 times serial dilution, a total of 10 concentrations. 1 μL was transferred to the designated position of the 96-well plate. • 1 μL droperidol (final concentration 10 μM) was added to the positive control well. 1 μL DMSO was added to the negative control well.
• Receptor cell membrane was diluted to 10 μg/well with corresponding experimental buffer, with 100 μL cell membrane/well.
• 3H-7-OH-DPAT was diluted to 2 nM with corresponding experimental buffer, and the final concentration was 1 nM.
• After 100 μL of cell membrane and isotope were added, respectively, the reaction plate of the D2 receptor was incubated at room temperature for 1 hour. The GF/C filter plate was soaked in 0.3% PEI solution for more than half an hour. After the reaction was completed, the cell membrane was collected on the GF/C filter plate using the […], washed 4 times with cold washing buffer, and then dried in an oven at 50° C. for 1 hour. The dried GF/C filter plate was sealed at the bottom, 50 μL of scintillation fluid was added to each well and the well was sealed. Reads were obtained by MicroBeta and the data was analyzed using GraphPad Prism 5.0.
Ki=IC50/(1+isotope concentration/Kd)

DAT = DAT (Homo sapiens, UniProt Q01959); assay: DAT transporter assay (neurotransmitter transporter absorption assay); assay type: cell-based
Sequence of DAT (Q01959 whole entry, species assumed): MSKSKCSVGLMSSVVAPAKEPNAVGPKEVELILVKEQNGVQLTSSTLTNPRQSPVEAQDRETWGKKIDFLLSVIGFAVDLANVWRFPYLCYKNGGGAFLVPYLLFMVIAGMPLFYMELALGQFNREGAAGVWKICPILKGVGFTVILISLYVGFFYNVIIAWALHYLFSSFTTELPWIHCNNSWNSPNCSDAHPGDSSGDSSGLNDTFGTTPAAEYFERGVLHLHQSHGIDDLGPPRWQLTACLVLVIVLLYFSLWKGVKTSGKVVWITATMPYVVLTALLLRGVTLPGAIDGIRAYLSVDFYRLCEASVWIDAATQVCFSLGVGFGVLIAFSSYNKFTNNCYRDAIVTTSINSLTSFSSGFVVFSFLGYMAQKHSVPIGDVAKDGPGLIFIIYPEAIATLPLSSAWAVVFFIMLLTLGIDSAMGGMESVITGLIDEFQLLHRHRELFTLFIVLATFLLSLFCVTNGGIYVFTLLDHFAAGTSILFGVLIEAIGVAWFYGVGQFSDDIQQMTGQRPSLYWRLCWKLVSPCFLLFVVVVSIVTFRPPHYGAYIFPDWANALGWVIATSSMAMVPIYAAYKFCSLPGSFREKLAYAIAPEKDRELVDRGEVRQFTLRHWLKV
Description: as §1
• HBSS1×, REPES 20 mM, BSA 0.1%.
• Lyophilized fluorescent dye 1 vial, Assay buffer 10 mL.
• BTCP—hydrochloride (Sigma)
• i) The medium was preheated in 37° C. water bath in advance for more than 30 minutes for later use. • j) The preheated medium was taken out, disinfected with 75% alcohol, and put into a biosafety cabinet. • k) The cultured cells were taken out from the […], and the medium was removed by a vacuum pump. 1× DPBS was added, incubated for a moment, and then removed by a vacuum pump. Appropriate amount of 0.05% trypsin-EDTA was added for cell digestion. The digestion was terminated by 10% FBS medium, and the cells were pipetted and dispersed. • l) The dispersed cells were transferred into a 50 mL centrifuge tube with a pipette.
• a) The reference compound was diluted in a ratio of 1:3 to 10 concentration gradients with the detection buffer containing 0.1% BSA, with the highest concentration being 2 μM. The compound to be tested was diluted to 20 uM with the detection buffer containing 0.1% BSA. • b) A centrifuge (750 rpm, 15 s) was used to spin off the culture solution in the cell culture plate, and the compound solution in step 1 was transferred to the cell culture plate (25 uL/well). • HC (High control): 25 μL of 0.1% BSA detection buffer containing 0.2% DMSO. • LC (Low control): 25 μL of solution containing 2 μM positive antagonist. • c) After centrifugation at 300 rpm for 15 seconds, the plate was incubated at 37° C. for 30 minutes. After the incubation with the compound was completed, a dye solution (25 μL/well) was added and incubated at 37° C. for 30 minutes.
Inhibitor % activity=100−(signal value per well−average value for LC well)/(average value for H well−average value for LC well)*100%.

D2 receptor [3] = target: T1, D2 receptor; settings: Bioorg. Med. Chem. 17 (2009) 1716-1723; cited from earlier work
D4 receptor = target: T2, D4 receptor (Homo sapiens, UniProt P21917); settings: Bioorg. Med. Chem. 17 (2009) 1716-1723; cited from earlier work
T2 sequence (P21917 1-419): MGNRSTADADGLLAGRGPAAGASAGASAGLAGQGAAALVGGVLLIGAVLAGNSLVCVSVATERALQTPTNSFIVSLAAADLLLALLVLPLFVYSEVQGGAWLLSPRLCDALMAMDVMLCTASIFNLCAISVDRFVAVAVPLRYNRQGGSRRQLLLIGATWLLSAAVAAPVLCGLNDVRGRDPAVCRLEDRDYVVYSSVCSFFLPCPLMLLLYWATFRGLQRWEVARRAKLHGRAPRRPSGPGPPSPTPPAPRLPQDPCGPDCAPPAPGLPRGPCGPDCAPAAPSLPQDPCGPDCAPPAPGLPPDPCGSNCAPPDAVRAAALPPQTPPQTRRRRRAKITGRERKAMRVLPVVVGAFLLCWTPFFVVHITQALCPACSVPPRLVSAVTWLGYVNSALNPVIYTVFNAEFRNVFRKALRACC

[4] = tested on: Amphetamine-induced high locomotor activity in mice; assay: Amphetamine-induced high locomotor activity (LMA) in mice; assay type: in vivo; set-up: Distance resulting from the activity, First 30 min / Distance resulting from the activity, Last 30 min: unit not given here; settings: Amphetamine 1.0 mg/kg s.c.; 5 mg/kg p.o. (low dose group; olanzapine positive control); male ICR mice
Description: The test compound MDC was a milky white powder and stored in a shade and cool place (formulated with 1% DMSO before use). […] Amphetamine, purchased from Sigma-Aldrich, was a white powder (formulated with normal saline before use). 1% DMSO was formulated by diluting pure DMSO (purity>99.5, purchased from Sigma) with normal saline.
(§2) Male ICR mice having weight 22±2 g were kept at 8 mice/cage with 12/12 hours light/dark cycle, temperature 23° C.±1° C., humidity 50% to 60%, free to eat and drink water.
The administration volume was 0.1 ml/10 g body weight; Amphetamine was freshly formulated with normal saline at a dose of 1.0 mg/kg and administered subcutaneously.
(§3) After one week of acclimation, mice were randomly divided into 6 groups according to their body weight: negative control group, model group, positive control group, and low dose group, medium dose group and high dose group for the test compound. 8-10 animals/group.
(§4) Group 1: Negative control group: Normal saline (s.c.)+1% DMSO (10.0 ml/kg, p.o.);
Group 2: Model group: Amphetamine (1.0 mg/kg, s.c.)+1% DMSO (10.0 ml/kg, p.o.);
Group 4: MDC low dose group: Amphetamine (1.0 mg/kg, s.c.)+MDC (5 mg/kg, p.o.);
Group 5: MDC medium dose group: Amphetamine (1.0 mg/kg, s.c.)+MDC (10 mg/kg, p.o.);
Group 6: MDC high dose group: Amphetamine (1.0 mg/kg, s.c.)+MDC (20 mg/kg, p.o.).
After administration, the animals were immediately placed in a locomotor activity box and recorded by Shanghai Jiliang animal video analysis system for 1 hour.
(§5) After the experiment, the activity of the animals within 1 hour was analyzed using the trajectory analysis software of Shanghai Jiliang animal video analysis system to obtain the total distance resulting from the activity.

[5] = tested on: PCP-induced high locomotor activity in mice; assay: Phencyclidine (PCP) induced high locomotor activity (LMA) in mice; assay type: in vivo; set-up: Distance resulting from the activity, First 30 min / Distance resulting from the activity, Last 30 min: unit not given here; settings: PCP 5.0 mg/kg s.c.; 5 mg/kg p.o. (low dose group; olanzapine positive control); male ICR mice
Source text: • 1. The effect of the compound on phencyclidine (PCP) induced high locomotor activity (LMA) in mice was detected.
The test compound MDC was milky white powder and stored in a shade and cool place (freshly formulated with 1% DMSO before use). […] Phencyclidine (PCP), purchased from Sigma Aldrich, was a grayish white powder (freshly formulated with normal saline before use). 1% DMSO was formulated by diluting pure DMSO (purity>99.5, purchased from Sigma-Aldrich) with normal saline.
as §2
The administration volume was 0.1 ml/10 g body weight; PCP was formulated with normal saline at a dose of 5 mg/kg.
The test compound MDC and olanzapine were administered by gavage and PCP was administered by subcutaneous injection.
as §3, §4
Group 2: Model group: PCP (5.0 mg/kg, s.c.)+1% DMSO (10.0 ml/kg, p.o.);
Group 4: MDC low dose group: PCP (5.0 mg/kg, s.c.)+MDC (5 mg/kg, p.o.);
Group 5: MDC medium dose group: PCP (5.0 mg/kg, s.c.)+MDC (10 mg/kg, p.o.);
Group 6: MDC high dose group: PCP (5.0 mg/kg, s.c.)+MDC (20 mg/kg, p.o.).
After oral administration, the animals were immediately placed in a locomotor activity box and recorded by Shanghai Jiliang ( ? ) animal video analysis system for 1 hour.
as §5

SMILES	IC50 (D2 receptor [1]) [nM]	IC50 (D2 receptor [2]) [nM]	IC50 (DAT) [nM]	other results
c1ccc2c(CN3CCC(c4cccc5[nH]ncc45)C3)c[nH]c2c1 (stereo not shown) [MDC-161502-038]	6.22	10.2	87.5	
c1ccc2c(CN3CCC(c4ccc5cn[nH]c5c4)C3)c[nH]c2c1 (stereo not shown) [MDC-161502-036]	471	298	841	
Oc1cccc(C2CCN(Cc3n[nH]c4ccccc34)C2)c1 (stereo not shown) [MDC-161502-033]	2.28	6.83	111	
Oc1cccc(C2CCN(Cc3c[nH]c4ncccc34)C2)c1 (stereo not shown) [MDC-161502-034]	1.99	2.02	685	
c1ccc2c(CN3CCC(c4ccc5[nH]nnc5c4)C3)c[nH]c2c1 (stereo not shown) [MDC-161502-040]			52.8	
Oc1cc(C2CCN(Cc3c[nH]c4ccccc34)C2)ccc1F (stereo not shown) [MDC-161502-031]	14.5	22.4	28.3	
OC1(c2ccc(Cl)cc2)CCN(Cc2c[nH]c3ccccc23)C1 (stereo not shown) [compound 4]				Antagonism to D2 receptor (in words) (D2 receptor [3]): substantially no antagonism to D2 receptor; D4 receptor antagonism (in words) (D4 receptor): moderate intensity of D4 receptor antagonism
Cc1cc2c(s1)Nc1ccccc1N=C2N1CCN(C)CC1 [Olanzapine, olanzapine, reference compound]				Distance resulting from the activity, First 30 min [4]: 227653; Distance resulting from the activity, Last 30 min [4]: 158673; Distance resulting from the activity, First 30 min [5]: 208491; Distance resulting from the activity, Last 30 min [5]: 80518
c1ccc2c(CN3CCC(c4ccc5nc[nH]c5c4)C3)c[nH]c2c1 (stereo not shown) [MDC-161502-037]	269	461	191	
